# Target: T1, SauBCA (β-carbonic anhydrase from Staphylococcus aureus) (Staphylococcus aureus, UniProt A0AAJ4SIE8)
# T1 sequence (A0AAJ4SIE8 1-189): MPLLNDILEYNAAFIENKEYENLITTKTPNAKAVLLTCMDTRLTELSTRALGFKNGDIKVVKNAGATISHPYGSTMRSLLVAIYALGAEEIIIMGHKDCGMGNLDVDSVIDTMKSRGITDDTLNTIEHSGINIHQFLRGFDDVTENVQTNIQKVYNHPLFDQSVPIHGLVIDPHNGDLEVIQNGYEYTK
# Experiment: Stopped-flow CO2 hydration inhibition assay, SauBCA
# Format: biochemical
# Conditions: Ki SauBCA, recombinant SauBCA, stopped-flow CO2 hydration, mean from three assays, errors ±5–10%
# Description: An Applied Photophysics stopped-flow instrument was used for assaying CA-catalysed CO2 hydration activity. […] Six traces of the initial 5 − 10% of the reaction were used to determine the initial velocity. The uncatalysed rates were determined in the same manner and subtracted from the total observed rates. A stock solution of inhibitor (0.1 mM) was prepared in distilled-deionized water, and dilutions of up to 0.01 nM were prepared thereafter with distilled-deionized water. Inhibitor (I) and enzyme (E) solutions were preincubated together for 15 min at RT prior to the assay to allow formation of the E − I complex. Inhibition constants were obtained by using the Cheng-Prusoff equation and nonlinear least squares methods (with PRISM 3) and are presented as the means from at least three different determinations. Kinetic constants were obtained using Lineweaver-Burke plots as reported earlier.
row,SMILES,Ki [nM]
1,Nc1ccc(S(N)(=O)=O)cc1 [compound 2],409

# Same assay, conditions: read-out: Ki SauBCA
row,Ki [nM],SMILES
1,509,Cc1onc(-c2ccccc2)c1-c1ccc(S(N)(=O)=O)cc1 [VLX]
2,466,CC1(C)O[C@@H]2[C@@H](CO[C@@]3(COS(N)(=O)=O)OC(C)(C)O[C@@H]23)O1 [TPM]
3,815,"CCN[C@H]1CN(CCCOC)S(=O)(=O)c2sc(S(N)(=O)=O)cc21 [BRZ, brinzolamide]"
4,871,"Cc1ccc(-c2cc(C(F)(F)F)nn2-c2ccc(S(N)(=O)=O)cc2)cc1 [CLX, celecoxib]"
5,863,"CC(=O)/N=c1/sc(S(N)(=O)=O)nn1C [MZA, methazolamide]"
6,4550,"NS(=O)(=O)Cc1noc2ccccc12 [ZNS, zonisamide]"
7,909,Nc1nccc(Nc2ccc(S(N)(=O)=O)cc2)n1 [compound 19]

# Same assay, conditions: recombinant SauBCA, stopped-flow CO2 hydration, mean from three assays, errors ±5–10%; read-out: Ki SauBCA
row,SMILES,Ki [nM]
1,NS(=O)(=O)c1cc(Cl)cc(Cl)c1O [compound 10],202
2,Nc1ccc(S(=O)(=O)Nc2nnc(S(N)(=O)=O)s2)cc1 [compound 20],92
3,O=C1NS(=O)(=O)c2ccccc21 [SAC],667
4,"NS(=O)(=O)NCCNc1nonc1C(=NO)Nc1ccc(F)c(Br)c1 [EPA, epacadostat]",538
5,Nc1ccc(S(=O)(=O)NCCc2ccc(S(N)(=O)=O)cc2)cc1 [compound 24],96
6,NS(=O)(=O)c1ccc(CCNS(=O)(=O)c2ccc([N+](=O)[O-])cc2CO)cc1 [compound 21],85
7,Nc1ccc(S(=O)(=O)NCc2ccc(S(N)(=O)=O)cc2)cc1 [compound 23],92
8,Nc1ccc(S(N)(=O)=O)cc1Cl [compound 8],95
9,Cc1ccc(S(N)(=O)=O)cc1 [compound 4],83
10,Nc1ccc(S(N)(=O)=O)cc1Br [compound 9],75
11,NS(=O)(=O)c1ccc(CO)cc1 [compound 16],603
12,Nc1ccc(S(=O)(=O)Nc2ccc(S(N)(=O)=O)cc2)cc1 [compound 22],83
13,NCc1ccc(S(N)(=O)=O)cc1 [compound 5],193
14,Nc1nnc(S(N)(=O)=O)s1 [compound 13],417
15,NS(=O)(=O)c1cccc(S(N)(=O)=O)c1 [compound 3],95

# Target: hCA II
# Experiment: not given
# Conditions: human recombinant isozyme, Table 2; cited from earlier work
row,SMILES,Ki [nM]
1,"NS(=O)(=O)NCCNc1nonc1C(=NO)Nc1ccc(F)c(Br)c1 [EPA, epacadostat]",917
2,"NC(N)=Nc1nc(CSCCC(N)=NS(N)(=O)=O)cs1 [FAM, famotidine]",58

# From PMC7534311, “Sulphonamide inhibition profile of Staphylococcus aureus β-carbonic anhydrase” (Journal of Enzyme Inhibition and Medicinal Chemistry, 2020)
